Read-outs that look alike come from different tables or passages of the source.
Tests used:
[1] = system: HCMV TB40; test: Drug combination with letermovir, plaque assay TB40, Bliss model; format: cell-based, human cytomegalovirus; details: read-out: EC50 (μM) of Compound 2
Protocol: Drug combination and analysis: These experiments were performed as previously reported^40. The combination of GCV and each compound was tested using the pp28-luciferase. Briefly, 2×10^6 HFFs/plate were seeded in 96-well plates and infected with the pp28-luciferase Towne HCMV strain (MOI=1). First, a dose response curve was generated for each drug individually to determine its EC50. Then, drugs were combined at twice their EC50, diluted in DMEM with 4% FBS, followed by serial dilution and added together after infection. Luciferase activity of the combination and each drug individually was quantified at 72 hpi. The combination of letermovir and each of the new compounds was tested by the plaque assay using TB40. The same principle applied in this assay for the drug combination effect, and plaques were counted at 8 dpi. The Bliss model was used to calculate the effect of each drug combination on pp28-luciferase activity and plaque reduction. In this model, drug combination represents the product of two probabilistically independent events as described in the following equation^41.
[formula] Where D is the drug concentration, m is the slope, and EC50 is the effective concentration resulting in 50% virus inhibition. The combined effect of two inhibitors (Fu, fractional unaffected) is computed as the product of individual effects of the two inhibitors, Fu1 and Fu2. If the ratio of observed fold inhibition divided by the expected fold inhibition is greater than 1, the compounds are synergistic. If the ratio is less than 1, the combination is considered antagonistic, and if it equals to 1 the combination is additive.
Pattern of drug combination with GCV and letermovir: The effect of each compound alone or in combination with GCV or letermovir was tested in HCMV-infected HFFs. […] A ratio of observed fold inhibition divided by the expected fold inhibition of >1 was considered drug synergy, <1 as drug antagonism, and =1 as additive. For letermovir and its combination with each of the five compounds the EC50 was determined based on plaque assay. The combination of GCV and 2955 was also tested by plaque assay. All other combinations and Bliss coefficients were measured by pp28- luciferase.

[2] = system: Mouse CMV (MCMV) Smith strain; test: Plaque assay, mouse CMV in MEFs; format: cell-based, mouse cytomegalovirus; details: plaque reduction; for EC50: MEFs, NA = Not active
Excerpt: Viruses and antiviral assays: A recombinant pp28-luciferase Towne HCMV strain expressing luciferase under the control of the UL99 (pp28) late promoter was reported to provide a highly-sensitive and reproducible reporter for drug screening^20. A GCV-resistant HCMV pp28-luciferase that contains a C607Y mutation in UL97 was reported^37. The HCMV TB40 strain was obtained from ATCC (VR-1578). Clinical isolates of Human Herpesvirus 1 and 2 (HSV1, HSV2) were collected from the Johns Hopkins Microbiology laboratory without identifiers that could link them to a specific patient. Mouse CMV (MCMV) Smith strain (ATCC VR-1399) was used for infection of MEFs.
Plaque reduction assay: HFFs were seeded into 12-well plates (2×10^5 cells/well) and infected with HCMV TB40 at approximately 100 plaques/well. After 90 min, media were aspirated, and DMEM containing 0.5% carboxymethyl-cellulose (CMC), 4% fetal bovine serum (FBS), and drugs were added into duplicate wells. Following incubation at 37° C. for 10-12 days the overlay was removed, and plaques were counted after crystal violet staining. For HSV1 and HSV2 replication in Vero cells, the adsorption time was 60 min and plaques were counted after 36 h. Plaque assays in MEFs were completed after 3 days.
Inhibition of other herpesviruses: Inhibition of herpes simplex 1 and 2 (HSV1, HSV2), Epstein Barr virus (EBV) and mouse CMV (MCMV) was tested with the five compounds. Plaque reductions assays were used for HSV1, HSV2 and MCMV. Inhibition of lytic EBV replication was measured by real-time PCR in AKATA cells following IgG induction. Only MLS8554 was active against HSV1, HSV2 and MCMV (Table 2).

[3] = system: HCMV Towne; test: Add-on and removal assays, luciferase at 72 hpi; format: cell-based, human cytomegalovirus; details: for stage of maximal activity during HCMV replication, in words: add-on and removal assays; for add-on assay result, in words: compound added at times after infection; for add-on assay result, in words / removal assay result, in words: luciferase 72 hpi; for removal assay result, in words: compound removed at times after infection
Protocol: Add-on and removal assays: These assays were performed to identify at which stage during HCMV replication the compounds had maximal activity. In the add-on group, compounds were added to infected HFFs at 0, 6, 24, and 48 hpi, and luciferase activity was measured at 72 hpi. In the removal group, compounds were added immediately after virus infection and were subsequently removed after 0, 6, 24, and 48 h; luciferase was measured at 72 hpi.
Timing of HCMV inhibition: Add-on and removal assays were performed. Compounds were added or removed at 0, 6, 12, 24, 36 and 48 hpi, and luciferase activity was measured at 72 hpi.

[4] = system: HCMV Towne (pp28-luciferase); test: pp28-luciferase HCMV Towne assay in HFFs, luciferase activity at 72 hpi; format: cell-based, human cytomegalovirus
Excerpt: A GCV-resistant HCMV pp28-luciferase that contains a C607Y mutation in UL97 was reported^37. The HCMV TB40 strain was obtained from ATCC (VR-1578). Clinical isolates of Human Herpesvirus 1 and 2 (HSV1, HSV2) were collected from the Johns Hopkins Microbiology laboratory without identifiers that could link them to a specific patient. Mouse CMV (MCMV) Smith strain (ATCC VR-1399) was used for infection of MEFs.
Luciferase activity: Cell lysates were collected at 72 hpi and luciferase activity was determined using the Glomax-Multi+Detection System (Promega, Madison, WI) as described previously^20.
HCMV inhibition was measured by luciferase activity of pp28-recombinant Towne and pp28 GCV-resistant Towne strains of HCMV (72 hpi) and by plaque reduction using HCMV Towne or TB40 (10 days). Viral protein expression was measured by Western blot.

[5] = Human betaherpesvirus 5, combination experiment with Letermovir
[6] = Human betaherpesvirus 5, read-out: EC50—Towne (μM)
[7] = combination experiment with Letermovir
[8] = pp28-luciferase Towne, HFFs, 72 hpi, read-out: EC50—Towne

Row | SMILES | EC50 [1, 5] | EC50 ([2]; Murid betaherpesvirus 1) | stage of maximal activity during HCMV replication, in words [3] | add-on assay result, in words [3] | removal assay result, in words [3] | EC50 [4, 6] | inhibition of luciferase activity, in words ([4]; compound after infection, MOI of 1 PFU/cell, 72 hpi) | EC50 [1, 7] | activity against MCMV, in words [2] | EC50 [2] | anti-HCMV activity, in words ([4]; all the HCMV strains used) | EC50 [4, 8]
1 | CC(C)NC(=O)C1CCN(C(=O)c2cc3sccc3n2Cc2ccc(Cl)cc2)CC1 [NCGC2955, 1-(4-(4-chlorobenzyl)-4H-thieno[3,2-b]pyrrole-5-carbonyl)-N-isopropylpiperidine-4-carboxamide] | 3.19 ± 0.17 µM | 1000 nM | early-late stage | overlapped with GCV | longer activity than GCV | 4.61 ± 1.4 µM | did not show a full dose response | – | – | – | – | –
2 | CCc1ccc(NC(=O)[C@H](Cc2c[nH]c3ccccc23)NC(=O)[C@@H]2Cc3ccccc3CN2)cc1 [MLS8554] | – | – | immediate early-early | activity was significantly reduced | near complete | – | – | 0.14 ± 0.02 µM | active | 11700 ± 2000 nM | active | 0.64 ± 0.1 µM
3 | CCN1CCN(CCCNC(=O)c2ccc3c(c2)sc2nc(-c4ccc(OC)cc4)cn23)CC1 [NFU1827, N-[3-(4-ethylpiperazin-1-yl)propyl]-4-(4-methoxyphenyl)-7-thia-2,5-diazatricyclo [6.4.0.02,6] dodeca-1(8),3,5,9,11-pentaene-10-carboxamide] | 0.69 ± 0.07 µM | – | immediate early-early | lost its ability to inhibit HCMV | significant HCMV suppression | 0.85 ± 0.1 µM | – | – | no activity | – | – | –
4 | Nc1c(S(=O)(=O)c2cccs2)c2nc3ccccc3nc2n1Cc1ccccc1 [MLS8091] | – | – | early-late stage | overlapped with that of GCV | showed earlier effects | – | – | 0.13 ± 0.05 µM | no activity | – | – | 0.39 µM

Source: US12691114B2, “Compositions for inhibition of herpesviruses” (The Medical College of Wisconsin, Inc., priority 2020, dated 2026)
